Measurements as given in EPA's ToxRefDB 2.

Key:
rat [1] = details: Fertility (Segment I), sprague dawley, Injection, Intraperitoneal, dose end: 7 GD
rat [2] = details: Sub-acute repeat dose toxicity, sprague dawley, Injection, Intraperitoneal, dose end: 30 day, group: systemic
rat [3] = details: Prenatal developmental toxicity study, sprague dawley, Oral, Gavage/Intubation, dose end: 15 GD
rat [4] = details: Combined chronic toxicity/carcinogenicity, sprague dawley, Oral, Feed, dose end: 104 week, group: systemic
rat [5] = details: Subchronic oral toxicity in rodents, sprague dawley, Feed, dose end: 90 day, group: systemic, systemic / in life observation / body weight / body weight + systemic / in life observation / body weight / body weight gain + systemic / in…
rat [6] = details: Multigenerational reproductive toxicity study, sprague dawley, Oral, Feed, dose end: 2 generation
dog [7] = details: Chronic toxicity; beagle; Oral; Feed; dose end: 52 week; group: systemic; systemic / pathology microscopic / liver / degeneration + systemic / pathology microscopic / liver / hyperplasia + systemic / pathology …
primate = details: Subchronic oral toxicity in nonrodent, macaque, Gavage/Intubation, dose end: 28 day, group: systemic, systemic / clinical chemistry / [other] / [other] + systemic / in life observation / clinical signs / emesis + systemic / in life …
rat [8] = details: Sub-acute repeat dose toxicity, sprague dawley, Oral, Gavage/Intubation, dose end: 28 day, group: systemic
rat [9] = details: Chronic toxicity, sprague dawley, Oral, Gavage/Intubation, dose end: 26 week, group: systemic
rat [10] = details: Subchronic oral toxicity in rodents, fischer, Feed, dose end: 13 week, group: systemic, systemic / hematology / erythrocyte (rbc) count differential / erythrocyte (rbc) + systemic / hematology / hematocrit (hct) / hematocrit (…
dog [11] = details: Sub-acute repeat dose toxicity, beagle, Injection, Intravenous, dose end: 1 month, group: systemic
rat [12] = details: Subchronic oral toxicity in rodents, fischer, Feed, dose end: 90 day
mouse [13] = details: Carcinogenicity, cd1, Oral, Feed, dose end: 78 week, group: systemic
mouse [14] = details: Subchronic oral toxicity in rodents, b6c3f1, Feed, dose end: 13 week, group: systemic
rat [15] = details: Subchronic oral toxicity in rodents, fischer, Feed, dose end: 13 week, group: systemic
mouse [16] = details: Carcinogenicity; b6c3f1; Oral; Feed; dose end: 2 year; group: systemic; systemic / in life observation / body weight / body weight
rat [17] = details: Carcinogenicity; fischer; Oral; Feed; dose end: 2 year; group: systemic; systemic / pathology microscopic / skin / keratoacanthoma
rat [18] = details: Subchronic oral toxicity in rodents, other, Feed, dose end: 15 week, group: cholinesterase
dog [19] = details: Subchronic oral toxicity in nonrodent, beagle, Feed, dose end: 13 week
[20] = group: maternal, reproductive / reproductive performance / implantations / implantations + reproductive / reproductive performance / preimplantation loss / …
[21] = group: parental, systemic / in life observation / body weight / body weight gain + systemic / organ weight / ovary / absolute + systemic / organ weight / …
[22] = systemic / clinical chemistry / creatinine / creatinine + systemic / in life observation / food consumption / food consumption + systemic / …
[23] = systemic / pathology microscopic / ovary / follicle count + systemic / in life observation / body weight / body weight
[24] = group: developmental, developmental / developmental malformation / bone / unossified
[25] = group: maternal, systemic / in life observation / clinical signs / drooping eyelids (ptosis) + systemic / in life observation / clinical signs / salivation…
[26] = systemic / in life observation / body weight / body weight + systemic / in life observation / body weight / body weight gain
[27] = systemic / in life observation / body weight / body weight + systemic / in life observation / body weight / body weight gain + systemic / …
[28] = group: offspring, systemic / in life observation / body weight / offspring (pup) weight + systemic / in life observation / body weight / offspring (pup) …
[29] = group: parental, systemic / in life observation / body weight / body weight + systemic / in life observation / body weight / body weight gain
[30] = systemic / clinical chemistry / alanine aminotransferase (alt/sgpt) / alanine aminotransferase (alt/sgpt) + systemic / clinical chemistry / …
[31] = systemic / hematology / platelet / platelet + systemic / in life observation / clinical signs / salivation
[32] = systemic / clinical chemistry / alanine aminotransferase (alt/sgpt) / alanine aminotransferase (alt/sgpt) + systemic / in life observation…
[33] = systemic / clinical chemistry / [other] / [other] + systemic / hematology / erythrocyte (rbc) count differential / erythrocyte (rbc) + …
[34] = systemic / urinalysis / potassium / potassium + systemic / urinalysis / sodium / sodium
[35] = group: cholinesterase, cholinesterase / cholinesterase / cholinesterase / brain cholinesterase (che)
[36] = group: cholinesterase, cholinesterase / cholinesterase / cholinesterase / brain cholinesterase (che) + cholinesterase / cholinesterase / cholinesterase / …
[37] = group: systemic, systemic / hematology / erythrocyte (rbc) count differential / erythrocyte (rbc) + systemic / hematology / hematocrit (hct) / hematocrit (…
[38] = group: systemic, systemic / hematology / mean corpuscular hemoglobin concentration (mchc) / mean corpuscular hemoglobin concentration (mchc)
[39] = systemic / in life observation / body weight / body weight gain + systemic / in life observation / food consumption / food efficiency + …
[40] = systemic / in life observation / body weight / body weight
[41] = systemic / in life observation / body weight / body weight + systemic / in life observation / mortality / mortality + systemic / pathology …
[42] = systemic / in life observation / body weight / body weight + systemic / in life observation / food consumption / food consumption + systemic…
[43] = cholinesterase / cholinesterase / cholinesterase / erythrocyte cholinesterase (che)
[44] = cholinesterase / cholinesterase / cholinesterase / erythrocyte cholinesterase (che) + cholinesterase / cholinesterase / cholinesterase / …
[45] = group: cholinesterase, cholinesterase / cholinesterase / cholinesterase / erythrocyte cholinesterase (che) + cholinesterase / cholinesterase / cholinesterase / …
[46] = group: systemic, systemic / in life observation / clinical signs / [other]

C1CC2OC2CC1C1CO1 (stereo not given) [4-Vinyl-1-cyclohexene dioxide]
LEL (rat [1]; [20]): 80 mg/kg/day | LOAEL (rat [1]; [20]): > 80 mg/kg/day | NEL (rat [1]; [20]): 20 mg/kg/day | NOAEL (rat [1]; [20]): ≥ 80 mg/kg/day | LEL (rat [1]; [21]): 80 mg/kg/day | LOAEL (rat [1]; [21]): > 80 mg/kg/day | NEL (rat [1]; [21]): 20 mg/kg/day | NOAEL (rat [1]; [21]): ≥ 80 mg/kg/day | LOAEL (rat [2]; [22]): > 80 mg/kg/day | NOAEL (rat [2]; [22]): ≥ 80 mg/kg/day | LEL (rat [2]; [23]): 40 mg/kg/day | NEL (rat [2]; [23]): < 40 mg/kg/day

CCNc1nc(NC(C)C)nc(SC)n1 [Ametryn]
LEL (rat [3]; [24]): 50 mg/kg/day | LOAEL (rat [3]; [24]): > 250 mg/kg/day | NEL (rat [3]; [24]): 5 mg/kg/day | NOAEL (rat [3]; [24]): ≥ 250 mg/kg/day | LOAEL (rat [3]; group: maternal, systemic / in life observation / clinical signs / drooping eyelids (ptosis) + systemic / in life observation / clinical signs / salivation): 50 mg/kg/day | LEL (rat [3]; [25]): 50 mg/kg/day | NEL (rat [3]; [25]): 5 mg/kg/day | NOAEL (rat [3]; [25]): 5 mg/kg/day | LEL (rat [4]; [26]): 20.9 mg/kg/day | LOAEL (rat [4]; [26]): 20.9 mg/kg/day | NEL (rat [4]; [27]): 2 mg/kg/day | NOAEL (rat [4]; [27]): 2 mg/kg/day | LEL (rat [5]): 36.1 mg/kg/day | LOAEL (rat [5]): 36.1 mg/kg/day | NEL (rat [5]): 7.4 mg/kg/day | NOAEL (rat [5]): 7.4 mg/kg/day | LEL (rat [6]; [28]): 131 mg/kg/day | LOAEL (rat [6]; [28]): 131 mg/kg/day | NEL (rat [6]; [28]): 13 mg/kg/day | NOAEL (rat [6]; [28]): 13 mg/kg/day | LEL (rat [6]; [29]): 131 mg/kg/day | LOAEL (rat [6]; [29]): 131 mg/kg/day | NEL (rat [6]; [29]): 13 mg/kg/day | NOAEL (rat [6]; [29]): 13 mg/kg/day | LEL (dog [7]): 70 mg/kg/day | LOAEL (dog [7]): 70 mg/kg/day | NEL (dog [7]): 7.2 mg/kg/day | NOAEL (dog [7]): 7.2 mg/kg/day

CCCCN1C(=O)[C@@H]([C@H](O)C2CCCCC2)NC(=O)C12CCN(Cc1ccc(Oc3ccc(C(=O)O)cc3)cc1)CC2.Cl [Aplaviroc hydrochloride]
LEL (primate): 30 mg/kg/day | LOAEL (primate): > 1000 mg/kg/day | NEL (primate): < 30 mg/kg/day | NOAEL (primate): ≥ 1000 mg/kg/day | LOAEL (rat [8]; [30]): > 1000 mg/kg/day | NOAEL (rat [8]; [30]): ≥ 1000 mg/kg/day | LEL (rat [8]; [31]): 30 mg/kg/day | NEL (rat [8]; [31]): < 30 mg/kg/day | LOAEL (rat [9]; [30]): > 750 mg/kg/day | NOAEL (rat [9]; [30]): ≥ 750 mg/kg/day | LEL (rat [9]; [32]): 100 mg/kg/day | NEL (rat [9]; [32]): < 100 mg/kg/day

O=C(O)c1cc(O)c(O)c(O)c1 [Gallic acid]
LEL (rat [10]): 300 mg/kg/day | LOAEL (rat [10]): 300 mg/kg/day | NEL (rat [10]): 100 mg/kg/day | NOAEL (rat [10]): 100 mg/kg/day

CN(C)c1ccc(O)c2c1C[C@H]1C[C@H]3[C@H](N(C)C)C(=O)C(C(N)=O)=C(O)[C@@]3(O)C(=O)C1=C2O [Minocycline]
LOAEL (dog [11]; [33]): > 40 mg/kg/day | NOAEL (dog [11]; [33]): ≥ 40 mg/kg/day | LEL (dog [11]; [34]): 5 mg/kg/day | NEL (dog [11]; [34]): < 5 mg/kg/day

COC(=O)Nc1cccc(OC(=O)Nc2cccc(C)c2)c1 [Phenmedipham]
LEL (rat [12]; [35]): 3.5 mg/kg/day | NEL (rat [12]; [35]): < 3.5 mg/kg/day | LOAEL (rat [12]; [36]): > 366 mg/kg/day | NOAEL (rat [12]; [36]): ≥ 366 mg/kg/day | LOAEL (rat [12]; [37]): 35.4 mg/kg/day | NOAEL (rat [12]; [37]): 3.5 mg/kg/day | LEL (rat [12]; [38]): 3.5 mg/kg/day | NEL (rat [12]; [38]): < 3.5 mg/kg/day | LOAEL (mouse [13]; systemic / in life observation / body weight / body weight gain + systemic / in life observation / food consumption / food efficiency): 1070 mg/kg/day | NEL (mouse [13]; [39]): 75 mg/kg/day | NOAEL (mouse [13]; [39]): 302 mg/kg/day | LEL (mouse [13]; systemic / pathology gross / spleen / enlarged + systemic / pathology microscopic / adrenal gland / amyloid deposition + systemic / …): 302 mg/kg/day

CCNc1cc2oc3cc(=[NH+]CC)c(C)cc-3c(-c3ccccc3C(=O)OCC)c2cc1C.[Cl-] [Rhodamine 6G]
LEL (mouse [14]; [40]): 300 mg/kg/day | NEL (mouse [14]; [40]): 150 mg/kg/day | LOAEL (mouse [14]; [41]): > 1200 mg/kg/day | NOAEL (mouse [14]; [41]): ≥ 1200 mg/kg/day | LOAEL (rat [15]; [42]): > 100 mg/kg/day | NEL (rat [15]; [42]): 12.5 mg/kg/day | NOAEL (rat [15]; [42]): ≥ 100 mg/kg/day | LEL (rat [15]; systemic / in life observation / body weight / body weight + systemic / pathology microscopic / bone marrow / atrophy): 25 mg/kg/day | LEL (mouse [16]): 125 mg/kg/day | LOAEL (mouse [16]): 125 mg/kg/day | NEL (mouse [16]): < 125 mg/kg/day | NOAEL (mouse [16]): < 125 mg/kg/day | LEL (rat [17]): 10 mg/kg/day | LOAEL (rat [17]): > 10 mg/kg/day | NEL (rat [17]): 5 mg/kg/day | NOAEL (rat [17]): ≥ 10 mg/kg/day

COP(=S)(OC)Oc1ccc(Sc2ccc(OP(=S)(OC)OC)cc2)cc1 [Temephos]
LEL (rat [18]; [43]): 0.9 mg/kg/day | LOAEL (rat [18]; [43]): 0.9 mg/kg/day | NEL (rat [18]; [44]): 0.3 mg/kg/day | NOAEL (rat [18]; [44]): 0.3 mg/kg/day | LEL (dog [19]; [45]): 12.5 mg/kg/day | LOAEL (dog [19]; [45]): 12.5 mg/kg/day | NEL (dog [19]; [45]): 0.46 mg/kg/day | NOAEL (dog [19]; [45]): 0.46 mg/kg/day | LEL (dog [19]; [46]): 12.5 mg/kg/day | LOAEL (dog [19]; [46]): 12.5 mg/kg/day | NEL (dog [19]; [46]): 0.46 mg/kg/day | NOAEL (dog [19]; [46]): 0.46 mg/kg/day
